Publication PMC8998611, “Identification of Novel GSK-3β Hits Using Competitive Biophysical Assays” (International Journal of Molecular Sciences, 2022)

Tests used:
Assay type in all cases: biochemical
MEK1 = target: T1, MEK1 (Homo sapiens, UniProt Q02750); assay: Eurofins Kinase Diversity Panel, MEK1; conditions: 20 µM compound; ATP at Km ± 15 µM
T1 construct: purchased Eurofins (Kinase Diversity Panel service)
Protocol: (§1) To further characterize the inhibitory activity of the two selected fragments, the selectivity of G5 and G12 towards a panel of 58 kinases of the humane proteome was evaluated using the “Kinase screening and profiling” service of Eurofins, Luxembourg (Kinase Diversity Panel). […] Results are reported in Supplementary Figures S2 and S3.

LOK1 = target: T2, LOK1 (Homo sapiens, UniProt O94804); assay: Eurofins Kinase Diversity Panel, LOK1; conditions: 20 µM compound; ATP at Km ± 15 µM; read-out: inhibitory effect on LOK1
T2 construct: purchased Eurofins (Kinase Diversity Panel service)
T2 sequence (O94804 whole entry): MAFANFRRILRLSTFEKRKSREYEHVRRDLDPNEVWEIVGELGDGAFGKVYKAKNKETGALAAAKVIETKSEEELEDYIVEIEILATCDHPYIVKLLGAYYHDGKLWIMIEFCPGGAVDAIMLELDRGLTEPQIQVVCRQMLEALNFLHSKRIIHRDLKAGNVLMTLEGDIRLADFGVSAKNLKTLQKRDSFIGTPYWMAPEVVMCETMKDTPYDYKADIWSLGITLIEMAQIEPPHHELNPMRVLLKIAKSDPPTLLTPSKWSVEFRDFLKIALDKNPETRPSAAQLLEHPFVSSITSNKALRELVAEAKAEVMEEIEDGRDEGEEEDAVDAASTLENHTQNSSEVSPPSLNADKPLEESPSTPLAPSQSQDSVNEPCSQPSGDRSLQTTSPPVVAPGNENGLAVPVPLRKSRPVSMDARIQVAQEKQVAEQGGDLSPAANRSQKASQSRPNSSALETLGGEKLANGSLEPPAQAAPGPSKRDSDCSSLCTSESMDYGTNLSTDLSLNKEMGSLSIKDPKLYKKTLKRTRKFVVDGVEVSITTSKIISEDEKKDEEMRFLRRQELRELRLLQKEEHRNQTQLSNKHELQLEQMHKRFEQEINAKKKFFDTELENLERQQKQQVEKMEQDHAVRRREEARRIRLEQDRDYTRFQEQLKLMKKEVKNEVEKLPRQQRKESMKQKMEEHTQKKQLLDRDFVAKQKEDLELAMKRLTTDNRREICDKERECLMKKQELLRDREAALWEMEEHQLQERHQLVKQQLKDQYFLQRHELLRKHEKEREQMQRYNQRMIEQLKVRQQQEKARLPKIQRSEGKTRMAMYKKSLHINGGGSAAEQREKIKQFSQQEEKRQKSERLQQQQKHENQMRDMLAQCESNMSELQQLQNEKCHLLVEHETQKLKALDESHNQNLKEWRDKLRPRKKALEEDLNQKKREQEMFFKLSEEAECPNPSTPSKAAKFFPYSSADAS
Protocol: as §1

AMPK1α = target: T3, AMPK1α (Homo sapiens, UniProt Q13131); assay: Eurofins Kinase Diversity Panel, AMPK1α; conditions: 20 µM compound; ATP at Km ± 15 µM
T3 construct: purchased Eurofins (Kinase Diversity Panel service)
T3 sequence (Q13131 whole entry): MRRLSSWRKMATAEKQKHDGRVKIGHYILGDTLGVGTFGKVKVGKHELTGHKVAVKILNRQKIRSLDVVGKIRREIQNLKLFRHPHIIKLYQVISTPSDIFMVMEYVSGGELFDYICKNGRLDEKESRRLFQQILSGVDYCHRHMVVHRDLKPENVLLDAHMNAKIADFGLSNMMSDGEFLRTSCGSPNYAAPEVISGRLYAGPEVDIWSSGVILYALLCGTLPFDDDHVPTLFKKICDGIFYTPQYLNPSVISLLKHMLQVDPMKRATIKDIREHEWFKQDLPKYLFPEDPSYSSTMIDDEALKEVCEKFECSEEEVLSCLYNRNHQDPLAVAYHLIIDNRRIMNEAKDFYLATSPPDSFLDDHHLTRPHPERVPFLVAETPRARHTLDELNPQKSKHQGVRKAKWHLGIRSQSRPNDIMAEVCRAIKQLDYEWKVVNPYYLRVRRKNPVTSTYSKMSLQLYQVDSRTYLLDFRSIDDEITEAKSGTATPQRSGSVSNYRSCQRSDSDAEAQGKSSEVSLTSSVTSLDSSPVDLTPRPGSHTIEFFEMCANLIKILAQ
T3 sequence (Q9Y478 whole entry partner): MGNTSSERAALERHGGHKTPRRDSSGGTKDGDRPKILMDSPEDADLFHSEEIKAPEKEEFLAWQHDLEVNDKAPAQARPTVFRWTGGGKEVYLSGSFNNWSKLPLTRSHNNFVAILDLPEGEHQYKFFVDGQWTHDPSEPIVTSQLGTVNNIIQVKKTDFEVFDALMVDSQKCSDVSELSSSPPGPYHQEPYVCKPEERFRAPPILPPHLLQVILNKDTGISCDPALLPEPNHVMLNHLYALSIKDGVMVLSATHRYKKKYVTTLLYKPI
T3 sequence (P54619 whole entry partner): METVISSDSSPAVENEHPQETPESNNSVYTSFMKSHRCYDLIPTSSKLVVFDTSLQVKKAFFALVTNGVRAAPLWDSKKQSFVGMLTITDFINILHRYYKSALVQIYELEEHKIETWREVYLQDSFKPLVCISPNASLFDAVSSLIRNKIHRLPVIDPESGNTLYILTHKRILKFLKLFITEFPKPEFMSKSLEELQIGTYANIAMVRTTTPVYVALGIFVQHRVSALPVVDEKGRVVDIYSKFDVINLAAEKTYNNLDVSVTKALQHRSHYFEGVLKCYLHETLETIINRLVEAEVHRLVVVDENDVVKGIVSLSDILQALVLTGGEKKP
Protocol: as §1

ABL = target: T4, ABL (Homo sapiens, UniProt P00519); assay: Eurofins Kinase Diversity Panel, ABL; conditions: 20 µM compound; ATP at Km ± 15 µM
T4 construct: purchased Eurofins (Kinase Diversity Panel service)
T4 sequence (P00519 whole entry): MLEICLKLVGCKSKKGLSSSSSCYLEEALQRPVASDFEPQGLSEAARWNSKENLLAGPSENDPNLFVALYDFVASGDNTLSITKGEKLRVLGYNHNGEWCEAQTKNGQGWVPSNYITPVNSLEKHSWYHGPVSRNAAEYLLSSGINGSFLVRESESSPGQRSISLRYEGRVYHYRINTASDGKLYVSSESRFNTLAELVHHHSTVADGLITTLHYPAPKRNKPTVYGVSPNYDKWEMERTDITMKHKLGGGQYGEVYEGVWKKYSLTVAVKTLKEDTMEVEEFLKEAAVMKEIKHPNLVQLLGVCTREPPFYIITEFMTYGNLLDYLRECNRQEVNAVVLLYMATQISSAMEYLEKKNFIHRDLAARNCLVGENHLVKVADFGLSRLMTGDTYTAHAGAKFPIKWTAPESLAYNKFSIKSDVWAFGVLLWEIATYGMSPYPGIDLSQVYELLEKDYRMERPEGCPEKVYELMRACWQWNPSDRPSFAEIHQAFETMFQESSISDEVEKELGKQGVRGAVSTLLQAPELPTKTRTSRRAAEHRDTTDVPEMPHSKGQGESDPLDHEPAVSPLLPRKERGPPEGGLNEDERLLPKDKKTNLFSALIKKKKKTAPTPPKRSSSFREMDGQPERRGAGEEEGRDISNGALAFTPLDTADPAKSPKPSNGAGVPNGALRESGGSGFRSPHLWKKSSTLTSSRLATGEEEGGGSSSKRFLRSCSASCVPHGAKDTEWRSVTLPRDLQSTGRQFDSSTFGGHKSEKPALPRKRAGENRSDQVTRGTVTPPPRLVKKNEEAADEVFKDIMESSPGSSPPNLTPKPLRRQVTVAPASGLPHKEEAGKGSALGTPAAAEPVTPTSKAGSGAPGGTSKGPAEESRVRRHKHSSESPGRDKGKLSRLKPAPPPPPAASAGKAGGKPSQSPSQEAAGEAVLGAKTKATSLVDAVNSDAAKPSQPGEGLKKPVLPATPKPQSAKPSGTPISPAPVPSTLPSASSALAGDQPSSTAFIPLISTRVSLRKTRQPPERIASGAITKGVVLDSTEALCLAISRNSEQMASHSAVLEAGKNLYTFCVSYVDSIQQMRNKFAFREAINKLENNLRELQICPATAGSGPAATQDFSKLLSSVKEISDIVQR
Protocol: as §1

CDK9 = target: T5, CDK9 (Homo sapiens, UniProt P50750); assay: Eurofins Kinase Diversity Panel, CDK9; conditions: 20 µM compound; ATP at Km ± 15 µM; read-out: inhibitory effect on CDK9
T5 construct: purchased Eurofins (Kinase Diversity Panel service)
T5 sequence (P50750 whole entry): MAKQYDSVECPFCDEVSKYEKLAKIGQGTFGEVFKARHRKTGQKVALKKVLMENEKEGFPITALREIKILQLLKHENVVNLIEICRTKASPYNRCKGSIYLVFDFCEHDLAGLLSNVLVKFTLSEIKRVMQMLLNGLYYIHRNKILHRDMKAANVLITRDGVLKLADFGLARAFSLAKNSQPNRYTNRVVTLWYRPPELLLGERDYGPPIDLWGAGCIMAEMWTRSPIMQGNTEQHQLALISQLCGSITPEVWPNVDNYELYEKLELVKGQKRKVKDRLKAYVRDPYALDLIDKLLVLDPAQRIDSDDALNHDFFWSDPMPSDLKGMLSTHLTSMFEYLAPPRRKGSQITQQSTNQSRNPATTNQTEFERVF
T5 sequence (O60563 whole entry partner): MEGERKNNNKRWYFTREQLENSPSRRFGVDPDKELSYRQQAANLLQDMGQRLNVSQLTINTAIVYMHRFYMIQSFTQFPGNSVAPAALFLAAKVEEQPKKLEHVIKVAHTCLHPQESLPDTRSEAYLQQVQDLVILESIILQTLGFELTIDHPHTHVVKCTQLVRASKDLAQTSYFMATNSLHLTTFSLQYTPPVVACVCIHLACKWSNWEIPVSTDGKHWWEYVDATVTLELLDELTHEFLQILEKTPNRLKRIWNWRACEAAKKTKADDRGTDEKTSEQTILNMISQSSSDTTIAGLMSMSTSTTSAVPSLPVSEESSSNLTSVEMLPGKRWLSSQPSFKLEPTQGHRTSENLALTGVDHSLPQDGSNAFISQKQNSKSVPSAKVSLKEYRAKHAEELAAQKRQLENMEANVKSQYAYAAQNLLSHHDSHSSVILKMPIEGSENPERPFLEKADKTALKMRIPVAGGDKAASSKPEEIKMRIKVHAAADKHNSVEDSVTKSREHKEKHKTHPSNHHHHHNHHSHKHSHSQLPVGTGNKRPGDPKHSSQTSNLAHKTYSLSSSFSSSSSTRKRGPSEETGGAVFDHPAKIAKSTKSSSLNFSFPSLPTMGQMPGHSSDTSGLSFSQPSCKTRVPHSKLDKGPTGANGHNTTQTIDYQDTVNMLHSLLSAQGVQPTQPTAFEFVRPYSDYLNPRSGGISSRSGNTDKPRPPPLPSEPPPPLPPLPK
Protocol: as §1

T1 sequence (Q02750 whole entry): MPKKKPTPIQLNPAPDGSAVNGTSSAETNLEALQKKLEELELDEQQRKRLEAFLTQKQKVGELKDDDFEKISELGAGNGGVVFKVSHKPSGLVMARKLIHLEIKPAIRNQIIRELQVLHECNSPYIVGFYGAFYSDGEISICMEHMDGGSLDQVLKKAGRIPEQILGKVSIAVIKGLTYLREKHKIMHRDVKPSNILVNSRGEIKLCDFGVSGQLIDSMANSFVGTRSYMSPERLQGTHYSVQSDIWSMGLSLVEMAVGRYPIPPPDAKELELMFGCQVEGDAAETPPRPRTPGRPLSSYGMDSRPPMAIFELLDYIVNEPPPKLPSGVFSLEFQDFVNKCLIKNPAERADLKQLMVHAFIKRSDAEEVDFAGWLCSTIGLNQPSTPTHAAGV

inhibitory effect on MEK1 (MEK1) | inhibition at 20 µM (LOK1) [%] | inhibitory effect on AMPK1α (AMPK1α) | inhibitory effect on ABL (ABL) | inhibition at 20 µM (CDK9) [%] | Compound
only marginally affected | 21 | only marginally affected |  |  | CS(=O)(=O)N1CC(c2nc(N)ncc2-c2ccc(F)cc2)C1 [G5]
 |  |  | no inhibitory effect | 50 | O=C(Nc1ccccn1)C1CCN(C(=O)CCc2ccccc2F)C1 (centres unmarked) [G12]
